Source: patent US12152077B1, “Immunotherapy targeting tumor neoantigenic peptides” (INSTITUT CURIE, priority 2019, dated 2024)
“Also recorded” adds a separate entry of the source.

Legend:
[1] = test system: CD8+ T cells from HLA-A2+ healthy donors; assay: Priming of naive CTLs by peptide-loaded autologous moDCs (immunogenicity, tetramer staining); type: cell-based, human; conditions: for expansion of specific CD8+ T cells (tetramer positive): one donor, versus co-culture without peptides; for specific CD8+ T expansions (immunogenicity): total of 6 donors, FIG. 11A
Description: Priming of naïve CTLs. PBMCs were obtained by Ficoll gradient separation from HLA-A2+ healthy blood donors. CD14+, CD4+ and CD8+ cells were purified by positive selection using magnetic beads (Miltenyi Biotec). While CD4+ and CD8+ T cells were cryopreserved until the experiment day, CD14+ fraction was cultured in the presence of IL-4 (50 ng/mL) and GM-CSF (10 ng/ml) at 10^6 cells/mL during 5 days to obtain moDCs. After this period of time, the moDCs were maturated with LPS and incubated with synthetic ER-derived peptides at a final concentration of 1 μg/mL for 2 hours. Finally, peptide-loaded moDCs were co-cultured with autologous CD4+ and CD8+ T cells in culture medium supplemented with IL-2 (10 U/ml) and IL-7 (100 ng/ml). The ER-derived peptide stimulation of specific CD8+ CTL populations was assessed by MHC-I tetramer staining by flow cytometry using a combination of two-color tetramer for each peptide.
(§1) Tetramer Staining. Cells were resuspended in PBS, stained with Live/Dead Aqua-405 nm (ThermoFisher) during 20 minutes at 4° C. and washed once. After that, cells were resuspended in PBS-1% BSA containing the mix of SA-coupled tetramers and incubated in the dark at room temperature during 20 minutes. Without further washing, surface antibodies were added in PBS-1% BSA and cells were incubated 20 minutes in the dark at 4° C. Surface antibodies were a combination of anti-CD3-BV650+ anti-CD8-PECy7 in combination with anti-CCR7-AF700+ anti-CD45RA-BUV395 when required. Finally, cells were washed twice and resuspended in FACS buffer for flow cytometry analysis.
The following step after binding validation to HLA-A2 allele, was to test the immunogenicity of predicted peptides. Priming assays were thus performed to test the ability of identified peptides to expand specific cytotoxic T cells. PBMCs from HLA-A2+ healthy donors were used to generate monocyte derived-DCs (moDCs). After loading the moDCs with a mix of synthetic peptides, autologous co-culture was performed with CD4+ and CD8+ T cells. Finally, the expansion of specific CD8+ T cells was analysed by flow cytometry using two-colours tetramer staining. As a control of specific expansion, the co-culture was performed in the absence of peptides. […] The same experiment was performed in order to evaluate the response in additional 5 donors.

[2] = test system: TILs derived from LUAD patients; assay: Tetramer staining of expanded tumor infiltrating lymphocytes (TILs); type: cell-based, human; conditions: TILs expanded with peptide mix + IL-2 or IL-2 only; HLA-A2+ LUAD patients
Description: as §1
Tumor infiltrating lymphocytes (TILs) cultures. Tumor tissue was cut into small pieces (1-3 mm3 size, 6-12 pieces maximum). Each tumor fragment was transferred into individual wells from 24-well plates and cultured in a final volume of 2 ml RPMI 10% Human Serum+IL-2 6000 IU/ml. Cells were feed/split as necessary during 15-20 days and cryopreserve or analyzed for tetramer staining.
In a first set of experiments tumor infiltrating lymphocytes (TILs) expanded with a mix of TE-derived peptides and Il-2, or only with Il-2, were analyzed by tetramer staining. As is shown in FIGS. 13A and B, we found CD8+ T-cells cells recognizing fusion-derived peptides in TILs derived from LUAD patients.

Row | Sequence | expansion of specific CD8+ T cells (tetramer positive) [1] | specific CD8+ T expansions (immunogenicity) [1] | CD8+ T cells recognizing peptide in TILs (tetramer positive) [2]
1 | AILPKANTV | expand specific CD8+ T cells | specific CD8+ T expansions | –
2 | AMDGKELSL | – | specific CD8+ T expansions | –
3 | FLGTRVTRV | – | specific CD8+ T expansions | –
4 | FLIVAEILI | expand specific CD8+ T cells | – | –
5 | GLLNISHTA | – | specific CD8+ T expansions | –
6 | GLPSHVELA | – | specific CD8+ T expansions; also recorded: immunogenic | found TILs recognizing
7 | ILHSLVTGV | – | specific CD8+ T expansions | –
8 | ILSGYGPCV | – | specific CD8+ T expansions | –
9 | ILTASITSI | – | specific CD8+ T expansions | –
10 | LLDRFGYHV | – | specific CD8+ T expansions | –
11 | LLGETKVYV | expand specific CD8+ T cells | specific CD8+ T expansions | –
12 | LLHLESFLV | – | specific CD8+ T expansions | –
13 | LLTSWHLYL | – | specific CD8+ T expansions | –
14 | MLMKTVWQA | – | specific CD8+ T expansions | –
15 | MLVTWELAL | – | specific CD8+ T expansions | –
16 | RLADHLSFC | expand specific CD8+ T cells | specific CD8+ T expansions; also recorded: immunogenic | –
17 | RLLHLESFL | expand specific CD8+ T cells | – | –
18 | RQAPGFHHA | – | specific CD8+ T expansions | –
19 | SLMQSGSPV | – | specific CD8+ T expansions | –
20 | VLLTNTIWL | – | specific CD8+ T expansions | –
21 | YLWTTFFPL | expand specific CD8+ T cells | specific CD8+ T expansions | –
